# Measured values: ChEMBL document CHEMBL6115026, “Synthesis and Biological Evaluation of Peripheral 5HT2B Antagonists for Liver Fibrosis” (J Med Chem, 2025)
# Tests used:
# [1] = biological target: T1, 5-hydroxytryptamine receptor 2B (Homo sapiens, UniProt P41595); test: (§1) Antagonist activity at 5HT2B (unknown origin) expressed in FRT cells co-expressing ANO1 and YFP assessed as inhibition of 5HT-induced increase in iodide influx preincubated with compound for 10 mins followed by 5-HT addition and measured after 8 sec by YFP fluorescence quenching analysis; type: cell-based
# [2] = biological target: T1, 5-hydroxytryptamine receptor 2B; test: as §1, with “influx at 1 uM” for “influx”, “analysis relative to control” for “analysis”; type: cell-based; settings: time 608.0 sec
# [3] = biological target: T1, 5-hydroxytryptamine receptor 2B; test: Binding affinity to 5-HT2B (unknown origin) assessed as inhibition constant by receptor binding assay
# [4] = biological target: T1, 5-hydroxytryptamine receptor 2B; test: Binding affinity to 5-HT2B (unknown origin)
# T1 sequence (P41595 whole entry): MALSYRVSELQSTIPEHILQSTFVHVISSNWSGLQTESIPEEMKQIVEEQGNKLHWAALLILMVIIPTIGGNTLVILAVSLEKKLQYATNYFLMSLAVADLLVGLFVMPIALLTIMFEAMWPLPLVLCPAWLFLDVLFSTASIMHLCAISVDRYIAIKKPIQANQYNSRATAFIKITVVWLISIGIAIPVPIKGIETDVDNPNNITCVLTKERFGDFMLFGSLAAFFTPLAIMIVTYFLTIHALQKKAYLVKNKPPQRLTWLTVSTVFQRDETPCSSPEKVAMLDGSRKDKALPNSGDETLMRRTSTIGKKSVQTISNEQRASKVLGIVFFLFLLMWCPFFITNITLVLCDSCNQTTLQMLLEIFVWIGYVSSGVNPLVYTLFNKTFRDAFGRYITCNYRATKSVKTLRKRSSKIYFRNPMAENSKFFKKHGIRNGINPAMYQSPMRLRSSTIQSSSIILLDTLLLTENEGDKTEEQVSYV
Structure (SMILES),inhibition ([2]; filed as antagonist) [%],inhibition [2] [%],further results
COc1ccc(S(=O)(=O)N[C@H]2CCN(C(=O)[C@@H](N)CCC(=O)O)C2)cc1C(=O)Nc1ccccc1Cl,94.5,–,IC50 [1]: 7.22 nM
NCC(=O)NCCN1CCN(CCCN2c3ccccc3Sc3ccc(C(F)(F)F)cc32)CC1,–,–,Ki [3]: 5.2 nM
O=C(c1ccc(-c2ccccc2)cc1)N1CCC(c2cc3ccccc3[nH]2)CC1,–,–,IC50 [4]: 2.4 nM
COc1ccc(S(=O)(=O)N[C@H]2CCN(C(=O)[C@@H](N)CC(=O)O)C2)cc1C(=O)Nc1ccccc1Cl,94.3,–,IC50 [1]: 80.7 nM
COc1ccc(S(=O)(=O)N[C@H]2CCOC2)cc1C(=O)Nc1ccccc1N1CCN(C(=O)OC(C)(C)C)CC1,–,1.64,–
COc1ccc(S(=O)(=O)N[C@H]2CCOC2)cc1C(=O)Nc1ccccc1N,–,32.8,–
COc1ccc(S(=O)(=O)N[C@H]2CCOC2)cc1C(=O)Nc1ccccc1N1CCNCC1,–,15,–

# Now from value to molecule, other results behind:
inhibition ([2]; filed as antagonist) [%],inhibition [2] [%],Structure (SMILES),further results
97.8,–,COc1ccc(S(=O)(=O)N[C@@H]2CCNC2)cc1C(=O)Nc1ccccc1Cl,–
99,–,COc1ccc(S(=O)(=O)N[C@@H]2CCN(C(=O)OC(C)(C)C)C2)cc1C(=O)Nc1ccccc1Cl,–
93.7,–,COc1ccc(S(=O)(=O)N[C@H]2CCNC2)cc1C(=O)Nc1ccccc1Cl,–
